Reference: patent US12043599B2, “Herbicidal compounds” (SYNGENTA PARTICIPATIONS AG, priority 2018, dated 2024)

Tests used:
Format in all cases: in vivo
Conditions in all cases: 250 g/h, evaluated after 13 days
Setaria faberi (SETFA) [1] = test: Pre-emergence herbicidal glasshouse test, percentage damage
Method in brief: (§1)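 Herbicidal effect was scored 13 days after a 250 g/h spray, using bands of 0-19% (1) through 80-100% (5). Sowing preceded spraying by 1 day for pre-emergence and 8 days for post-emergence. The glasshouse ran at 24/16 °C with 14 h light.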

[2] = system: Alopecurus myosuroides (ALOMY); test: as above
Method in brief: as §1

Avena fatua (AVEFA) [3] = test: as above
Method in brief: as §1

[4] = system: Echinochloa crus-galli (ECHCG); test: as above
Method in brief: as §1

Lolium perenne (LOLPE) [5] = test: as above
Method in brief: as §1

Setaria faberi (SETFA) [6] = test: Post-emergence herbicidal glasshouse test, percentage damage
Method in brief: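 Percentage damage was scored 13 days after treatment on a five-point scale (1=0-19% to 5=80-100%). Treatments were post-emergence sprays on 8-day-old wheat, barley and SETFA plants in a glasshouse (24/16 °C day/night, 14 h light, 65% humidity), using acetone/water 50:50 with 0.5% Tween 20 at the stated rates. Wheat additionally received cloquintocet-mexyl safener at 50 g/ha.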

[7] = system: Alopecurus myosuroides (ALOMY); test: as above
Method in brief: as §1

Avena fatua (AVEFA) [8] = test: as above
Method in brief: as §1

[9] = system: Echinochloa crus-galli (ECHCG); test: as above
Method in brief: as §1

Lolium perenne (LOLPE) [10] = test: as above
Method in brief: as §1

SMILES	SETFA PRE percentage damage (five point scale) (Setaria faberi (SETFA) [1])	ALOMY PRE percentage damage (five point scale) [2]	AVEFA PRE percentage damage (five point scale) (Avena fatua (AVEFA) [3])	ECHCG PRE percentage damage (five point scale) [4]	LOLPE PRE percentage damage (five point scale) (Lolium perenne (LOLPE) [5])	SETFA POST percentage damage (five point scale) (Setaria faberi (SETFA) [6])	ALOMY POST percentage damage (five point scale) [7]	AVEFA POST percentage damage (five point scale) (Avena fatua (AVEFA) [8])	ECHCG POST percentage damage (five point scale) [9]	LOLPE POST percentage damage (five point scale) (Lolium perenne (LOLPE) [10])
CC#Cc1cc(C)c(C2C(=O)CC3(CCN(C(=O)[C@@H]4COCCO4)CC3)CC2=O)c(C)c1 [Compound A174]	5 (5=80-100%)	5 (5=80-100%)	5 (5=80-100%)	5 (5=80-100%)	5 (5=80-100%)	5 (5=80-100%)	5 (5=80-100%)	5 (5=80-100%)	5 (5=80-100%)	5 (5=80-100%)
CC#Cc1cc(C)c(C2C(=O)CC3(CCN(C(=O)C4=COCCC4)CC3)CC2=O)c(C)c1 [Compound A175]	5 (5=80-100%)	5 (5=80-100%)	4 (4=60-79%)	5 (5=80-100%)	5 (5=80-100%)	5 (5=80-100%)	5 (5=80-100%)	5 (5=80-100%)	5 (5=80-100%)	5 (5=80-100%)
CC#Cc1cc(C)c(C2C(=O)CC3(CCN(C(=O)NC(=O)c4ccc(OC)cn4)CC3)CC2=O)c(C)c1 [Compound A176]	5 (5=80-100%)	3 (3=40-59%)	2 (2=20-39%)	5 (5=80-100%)	5 (5=80-100%)	5 (5=80-100%)	5 (5=80-100%)	2 (2=20-39%)	5 (5=80-100%)	5 (5=80-100%)
CC#Cc1cc(C)c(C2C(=O)CC3(CCN(C(=O)Nc4ncccc4C)CC3)CC2=O)c(C)c1 [Compound A177]	5 (5=80-100%)	2 (2=20-39%)	4 (4=60-79%)	5 (5=80-100%)	5 (5=80-100%)	5 (5=80-100%)	4 (4=60-79%)	5 (5=80-100%)	5 (5=80-100%)	5 (5=80-100%)
CC#Cc1cc(C)c(C2C(=O)CC3(CCN(C(=O)c4cccc(C#N)n4)CC3)CC2=O)c(C)c1 [Compound A178]	5 (5=80-100%)	4 (4=60-79%)	5 (5=80-100%)	4 (4=60-79%)	5 (5=80-100%)	5 (5=80-100%)	5 (5=80-100%)	5 (5=80-100%)	5 (5=80-100%)	5 (5=80-100%)
CC#Cc1cc(C)c(C2C(=O)CC3(CCN(C(=O)c4cncc(OC)n4)CC3)CC2=O)c(C)c1 [Compound A180]	5 (5=80-100%)	5 (5=80-100%)	5 (5=80-100%)	5 (5=80-100%)	5 (5=80-100%)	5 (5=80-100%)	5 (5=80-100%)	5 (5=80-100%)	5 (5=80-100%)	5 (5=80-100%)
CC#Cc1cc(C)c(C2C(=O)CC3(CCN(C(=O)C4=CCCCO4)CC3)CC2=O)c(C)c1 [Compound A182]	5 (5=80-100%)	5 (5=80-100%)	3 (3=40-59%)	5 (5=80-100%)	5 (5=80-100%)	5 (5=80-100%)	5 (5=80-100%)	4 (4=60-79%)	5 (5=80-100%)	5 (5=80-100%)
CC#Cc1cc(C)c(C2C(=O)CC3(CCN(C(=O)CCc4ccn(C)n4)CC3)CC2=O)c(C)c1 [Compound A183]	5 (5=80-100%)	4 (4=60-79%)	4 (4=60-79%)	5 (5=80-100%)	5 (5=80-100%)	5 (5=80-100%)	5 (5=80-100%)	5 (5=80-100%)	5 (5=80-100%)	5 (5=80-100%)
CC#Cc1cc(C)c(C2C(=O)CC3(CCN(C(=O)CCc4ccccn4)CC3)CC2=O)c(C)c1 [Compound A184]	5 (5=80-100%)	1 (1=0-19%)	2 (2=20-39%)	4 (4=60-79%)	5 (5=80-100%)	5 (5=80-100%)	4 (4=60-79%)	5 (5=80-100%)	5 (5=80-100%)	5 (5=80-100%)
CC#Cc1cc(C)c(C2C(=O)CC3(CCN(C(=O)COC(C)(C)C)CC3)CC2=O)c(C)c1 [Compound A185]	5 (5=80-100%)	5 (5=80-100%)	4 (4=60-79%)	5 (5=80-100%)	5 (5=80-100%)	5 (5=80-100%)	5 (5=80-100%)	5 (5=80-100%)	5 (5=80-100%)	5 (5=80-100%)
CC#Cc1cc(C)c(C2C(=O)CC3(CCN(C(=O)COCCC)CC3)CC2=O)c(C)c1 [Compound A186]	5 (5=80-100%)	5 (5=80-100%)	5 (5=80-100%)	5 (5=80-100%)	5 (5=80-100%)	5 (5=80-100%)	5 (5=80-100%)	5 (5=80-100%)	5 (5=80-100%)	5 (5=80-100%)
